The NIST ThermoML archive (doi:10.1016/j.fluid.2006.10.027)

Test: xn = mol fraction of the nth substance listed
Conditions: 101 kPa, Liquid, Capillary tube (Ostwald / Ubbelohde) method, x1 = 0.38

CC(C)C(=O)O [2-methylpropanoic acid] + O
Conditions	viscosity [mPa·s]
300.25 K	2.21
300.33 K	2.205
300.36 K	2.204
300.49 K	2.197
300.61 K	2.19
300.66 K	2.187
300.76 K	2.182
300.87 K	2.176
300.96 K	2.171
301.09 K	2.164
301.16 K	2.16
301.26 K	2.154
301.36 K	2.149
301.49 K	2.142
301.56 K	2.138
301.85 K	2.122
302.16 K	2.105
302.46 K	2.088
